In US6228889A, “Methods for treatment of conditions associated with lactosylceramide” (priority 1999, dated 2001):

Key:
restenosis = conditions: patients, reported in literature; cited from earlier work
Eahy 926 cells = test: Superoxide production by intact Eahy 926 (lucigenin chemiluminescence); assay type: cell-based, human; conditions: 5 μM LacCer after 5 minutes, intact Eahy 926 cells
NADH oxidase = NADH oxidase assay in membrane preparations of Eahy 926 cells; assay type: biochemical, human; conditions: 5 μM LacCer
NF-kB = NF-kB DNA binding assay (gel mobility shift) in Eahy 926 cells; assay type: cell-based, human; conditions: 5 μM LacCer
VCAM-1 = VCAM-1 expression in Eahy 926; assay type: cell-based, human; conditions: Eahy 926, LacCer
P-selectin = P-selectin expression in Eahy 926; assay type: cell-based, human; conditions: Eahy 926, LacCer
[1] = system: neutrophil adhesion to Eahy 926 cells; test: Confocal microscopic study of adhesion of human neutrophils to Eahy 926 endothelial cells; assay type: cell-based; conditions: LacCer 5 μM, 4 hours
p150,95 = test: Flowcytometric analysis of p150,95 expression on PMNs; assay type: cell-based, human; conditions: 20 minutes
Protocol: (§1) 10. Flowcytometric Analysis of the Expression of Adhesion Molecules on PMNs. Treated PMNs were rapidly cooled on ice, washed twice with cold washing buffer (PBS containing 0.1% BSA and 0.1% sodium azide), and then incubated with either monoclonal (m) anti-human (h) LFA-1 (CD11 a), m-anti-h Mac-1 (CD 11b), m-anti-h p150,95 (CD 11 c) or m-anti-h L-selectin (all from PharMingen., San Diego, Calif.), followed by FITC-conjugated m-anti-mouse IgG (American Qualex, San Clement, Calif.). The PMNs were gated by forward and side scattering for analysis by FACScan (Becton Dickinson, Cockeysville, Md.).

CD11a/CD18 (LFA-1) = test: Flowcytometric analysis of LFA-1 expression on PMNs; assay type: cell-based, human; conditions: 20 minutes
Protocol: as §1

L-selectin = test: Flowcytometric analysis of L-selectin expression on PMNs; assay type: cell-based, human; conditions: 20 minutes
Protocol: as §1

PMNs [2] = test: ROM generation by PMNs (DCFH-DA); assay type: cell-based, human; conditions: DCFH-DA, 45 minutes
PMNs [3] = test: Superoxide generation in PMNs (lucigenin); assay type: cell-based, human; conditions: 100 nmol LacCer 20 minutes, no inhibitor, PMNs
[4] = system: PMN adhesion to unstimulated endothelial cells; test: PMN-endothelial adhesion assay; assay type: cell-based, human; conditions: PMNs incubated with LacCer, washed
Protocol: 12. PMN-Endothelial Adhesion Assay. PMNs were labeled fluorescently by incubation with 5 μmol/L Calcein-AM (Molecular Probes) in calcium-free PBS for 20 minutes at 37° C., washed and resuspended in Hanks' balanced salt solution (Gibco) containing 0.2% bovine serum albumin (BSA). These PMNs were then treated with LacCer (or vehicle, 0.05% DMSO), washed 3 times with PBS and then plated on the unstimulated ec monolayers, which had been grown to confluence in 24-well plates. The PMNs (600 μL of 2×10^6 /mL/well) then were incubated with the ecs for 30 minutes at 37° C. Non-adherent PMNs were then removed by gentle washing 3 times with PBS. The residual adherent PMNs (and ecs) were then lysed using 4mmol/L Zwittergent Calbiochem, La Jolla, Calif.) and the plates read on a fluorescence plate reader (Millipore) at EX 480 nm/EM 530 nm. The number of adherent PMNs were expressed as number of PMN/mm^2 ec monolayer, based on the mean fluorescent intensity of each PMN, as determined from a standard curve. 13. Additional Methods. LacCer, ceramide and […] (all from Sigma) were prepared as described in examples below, and used as putative agonists for the stimulation of PMN adhesion molecule expression, assayed by FACScan. […]

PMNs [5] = test: [3H] arachidonic acid release from labeled PMNs; assay type: cell-based, human; conditions: 100 nmol/L LacCer, 30 minutes at 37° C.
NADPH oxidase = conditions: eahy 926 cell membranes, 5 min, 5 µM
Mac-1 (CD11b/CD18) = conditions: pmns, 20 min, 0.1 µM

For CC(C)(Sc1cc(C(C)(C)C)c(O)c(C(C)(C)C)c1)Sc1cc(C(C)(C)C)c(O)c(C(C)(C)C)c1 [probucol], which restenosis after angioplasty (restenosis) is on record?
Its restenosis after angioplasty is “reduce restenosis in some patients”.

For lactosylceramide [LacCer], which “maximum generation of O2-” value (Eahy 926 cells) is on record?
The value was 2.7 nmol/mni/mg protein.

And the “NADH oxidase activity in LacCer stimulated/non stimulated membrane preparations” value (NADH oxidase)?
The value was “remained unchanged”.

And the “nuclear concentration of NF-kB” value (NF-kB)?
The value was “time dependent increase”.

What about the “expression of VCAM-1” value (VCAM-1) of the same compound?
The value was “did not stimulate measurable expression”.

What about the “expression of P-selectin” value (P-selectin) of the same compound?
Its value is “did not stimulate measurable expression”.

What about the “adhesion of neutrophils to the endothelial cell monolayer” value [1] of the same compound?
The value was “markedly stimulated”.

What about the “level of p150,95” value (p150,95; LacCer 200 nmol/L) of the same compound?
The value was “decreased”.

And the “level of p150,95” value (p150,95; LacCer 50-100 nmol/L)?
The value was “increased”.

What about the “level of CD11a/CD18 (LFA-1)” value (CD11a/CD18 (LFA-1); LacCer higher concentrations) of the same compound?
The value was “downregulated”.

What about the “level of CD11a/CD18 (LFA-1)” value (CD11a/CD18 (LFA-1); LacCer lower concentrations) of the same compound?
The value was “did not change”.

What about the “level of L-selectin” value (L-selectin; LacCer higher concentrations) of the same compound?
The value was “downregulated”.

What about the “level of L-selectin” value (L-selectin; LacCer lower concentrations) of the same compound?
Its value is “did not change”.

And the “ROM stimulation in PMNs” value (PMNs [2])?
The value was “positive, dose-dependent response”.

And the “superoxide levels compared with controls” value (PMNs [3])?
Its value is “about two”.

What about the “PMN adhesion to unstimulated ec monolayers” value [4] of the same compound?
The value was “increased”.

And the “[3H] AA release from labeled PMNs” value (PMNs [5])?
The value was “increased”.

What about the “maximal expression of ICAM-1 as compared to control” value (ICAM-1; eahy 926 cells, 6 h, 5 µM) of the same compound?
Its value is 7 fold.

And the “stimulation of ICAM-1 expression by GSLs” value (ICAM-1; intact Eahy 926 cells, GSLs 10 μM, gangliosides up to 50 μM)?
The value was “specifically stimulated”.

What about the “stimulation of NADPH oxidase activity versus non-stimulated cell membrane preparations” value (NADPH oxidase) of the same compound?
The value was “about 3 fold”.

What about the “maximum stimulation of Mac-1 level compared to control” value (Mac-1 (CD11b/CD18)) of the same compound?
Its value is 2.5 fold.
